Legend:
[1] = molar heat capacity at constant pressure; xn = mol fraction of the nth substance listed; conditions: Flow calorimetry
[2] = molar heat capacity at constant pressure; conditions: 3000 kPa, Flow calorimetry

CCCCC [pentane] + CC(C)=O
[1]
Conditions	molar heat capacity at constant pressure [J/K/mol]
423.14 K, 3900 kPa, Liquid, x1 = 0.25	170.75
423.14 K, 7920 kPa, Liquid, x1 = 0.5	179.32
423.15 K, 2000 kPa, Liquid, x1 = 0.25	174.5
423.15 K, 2900 kPa, Liquid, x1 = 0.5	194.43
423.15 K, 4000 kPa, Liquid, x1 = 0.5	190.78
423.15 K, 6000 kPa, Liquid, x1 = 0.25	171.36
423.15 K, 6050 kPa, Liquid, x1 = 0.5	184.14
423.15 K, 7960 kPa, Liquid, x1 = 0.25	163.97
423.16 K, 1080 kPa, Gas, x1 = 0.5	145.86
423.16 K, 2300 kPa, Liquid, x1 = 0.25	175.12
423.17 K, 1080 kPa, Gas, x1 = 0.25	135.14
483.14 K, 2960 kPa, Gas, x1 = 0.5	180.5
483.14 K, 4000 kPa, Gas, x1 = 0.5	283.18
483.15 K, 4480 kPa, Fluid (supercritical or subcritical phases), x1 = 0.5	750.83
483.15 K, 7050 kPa, Fluid (supercritical or subcritical phases), x1 = 0.5	233.69
483.15 K, 8160 kPa, Fluid (supercritical or subcritical phases), x1 = 0.5	218.13
483.16 K, 5000 kPa, Fluid (supercritical or subcritical phases), x1 = 0.5	446.03
483.16 K, 6100 kPa, Fluid (supercritical or subcritical phases), x1 = 0.5	260.13
493.15 K, 3860 kPa, Gas, x1 = 0.25	221.56
493.15 K, 4530 kPa, Fluid (supercritical or subcritical phases), x1 = 0.25	611.96
493.15 K, 4742 kPa, Fluid (supercritical or subcritical phases), x1 = 0.25	1236.9
493.15 K, 7920 kPa, Fluid (supercritical or subcritical phases), x1 = 0.25	214.05
493.16 K, 3140 kPa, Gas, x1 = 0.25	173.64
493.16 K, 6000 kPa, Fluid (supercritical or subcritical phases), x1 = 0.25	263.45
503.14 K, 3200 kPa, Gas, x1 = 0.25	167.97
503.14 K, 4120 kPa, Gas, x1 = 0.25	214.42
503.15 K, 6180 kPa, Fluid (supercritical or subcritical phases), x1 = 0.25	330.59
503.15 K, 7820 kPa, Fluid (supercritical or subcritical phases), x1 = 0.25	229.45
503.16 K, 5400 kPa, Fluid (supercritical or subcritical phases), x1 = 0.25	600.07
508.15 K, 2980 kPa, Gas, x1 = 0.5	175.81
508.15 K, 4060 kPa, Gas, x1 = 0.5	200.68
508.15 K, 6050 kPa, Fluid (supercritical or subcritical phases), x1 = 0.5	360.73
508.15 K, 6930 kPa, Fluid (supercritical or subcritical phases), x1 = 0.5	310.98
508.15 K, 8010 kPa, Fluid (supercritical or subcritical phases), x1 = 0.5	261.37
508.16 K, 5030 kPa, Fluid (supercritical or subcritical phases), x1 = 0.5	258.63

O [water]
[2]
Conditions	molar heat capacity at constant pressure [J/K/mol]
330.2 K, Liquid	75.29
340.1 K, Liquid	75.41
358.4 K, Liquid	75.61
368.2 K, Liquid	75.61
378.6 K, Liquid	75.99
388.4 K, Liquid	76.49
398.5 K, Liquid	76.51
408.6 K, Liquid	77.48
418.8 K, Liquid	76.93
428.6 K, Liquid	77.72
438.5 K, Liquid	78.11
448.2 K, Liquid	78.91
458.5 K, Liquid	79.41
468.2 K, Liquid	80.92
478.2 K, Liquid	81.81
488.7 K, Liquid	83.32
498.1 K, Liquid	83.92
508.4 K, Gas	63.31

Reference: the NIST ThermoML archive (doi:10.1016/j.tca.2018.04.018)
